Measured values: patent US12590099B2, “Inhibitors of histone deacetylase useful for the treatment or prevention of HIV infection” (Merck Sharp & Dohme LLC, priority 2018, dated 2026)

Each compound was assayed against T1, Recombinant human HDAC8 (Homo sapiens, UniProt Q9BY41) (assay: Human HDAC enzyme inhibitor Fluor-de-Lys assay, HDAC8). Details: not given.
T1 construct: purchased Enzo Life Sciences BML-SE145-0100
T1 sequence (Q9BY41 1-377): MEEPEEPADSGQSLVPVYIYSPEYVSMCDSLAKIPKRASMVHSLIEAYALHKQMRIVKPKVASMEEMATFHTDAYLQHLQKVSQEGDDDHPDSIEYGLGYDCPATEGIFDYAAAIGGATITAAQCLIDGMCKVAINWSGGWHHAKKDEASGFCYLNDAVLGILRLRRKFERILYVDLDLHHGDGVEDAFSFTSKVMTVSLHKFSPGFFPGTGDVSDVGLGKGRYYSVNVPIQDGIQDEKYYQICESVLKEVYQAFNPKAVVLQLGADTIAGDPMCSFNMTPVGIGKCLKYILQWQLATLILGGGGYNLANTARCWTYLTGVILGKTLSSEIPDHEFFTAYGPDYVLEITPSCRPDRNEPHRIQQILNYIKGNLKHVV
Format: biochemical

SMILES	IC50 [µM]
CCC(=O)CCCCC[C@H](NC(=O)[C@H]1CC12CCN(C)CC2)c1ncc(-c2coc3ccccc3c2=O)[nH]1 [Compound 86]	3.17
CCC(=O)CCCCC[C@H](NC(=O)[C@H]1CC12CCN(CC)CC2)c1ncc(-c2ccc3c(ccc(=O)n3C)c2)o1 [Compound 97]	> 45
CN1CCC2(CC1)C[C@@H]2C(=O)N[C@@H](CCCCCC(=O)CC1CC1)c1ncc(-c2ccc(F)cc2)[nH]1 [Compound 84]	14.3
CCC(=O)CCCCC[C@H](NC(=O)[C@H]1CC12CCN(C)CC2)c1ncc(-c2ccc3cc(C#N)ccc3c2)[nH]1 [Compound 90]	2.64
CCC(=O)CCCCC[C@H](NC(=O)[C@H]1CC12CCN(CC)CC2)c1ncc(-c2ccc(-c3ncco3)cc2)o1 [Compound 94]	44.2

Same assay, conditions: recombinant human HDAC8, Fluor-de-Lys assay

SMILES	IC50 [µM]
CCOc1ncc(-c2cnc([C@H](CCCCCC(=O)CC)NC(=O)[C@H]3CC34CCN(C)CC4)[nH]2)cn1 [Compound 266]	19.3
CCC(=O)CCCCC[C@H](NC(=O)[C@@H]1CC12CCN(C)CC2)c1nnc(-c2cc3ccccc3nc2OC)o1 [Compound 305]	> 45
CCC(=O)CCCCC[C@H](NC(=O)C1CC12CCN(CC)CC2)c1nc(-c2ccc(F)cc2)[nH]c1-c1cccs1 (stereo partly drawn) [Compound 252]	29.6
CCC(=O)CCCCC[C@H](N)c1ncc(-c2cc3ccc(=O)n(C)c3cc2OC)o1 [Compound 224]	> 0.9
CCC(=O)CCCCC[C@H](NC(=O)C1(N)CC2(CN(C)C2)C1)c1ncc(-c2cc3ccccc3nc2OC)[nH]1 [Compound 276]	5
CCC(=O)CCCCCC(NC(=O)C1CC12CCN(CC)CC2)c1nc(-c2ccc(F)cc2)[nH]c1-c1ccnn1C (stereo not drawn) [Compound 253]	26.8
CCC(=O)CCCCC[C@H](NC(=O)[C@H]1CC12CCN(C)CC2)c1ncc(-c2ccc(-n3nc(C)cc3C)cc2)[nH]1 [Compound 260]	> 15

The compounds below were run against T2, HDAC6 (Homo sapiens, UniProt Q9UBN7) (assay: Human HDAC enzyme inhibitor Fluor-de-Lys assay, HDAC6). Details: not given.
T2 sequence (Q9UBN7 1-1215): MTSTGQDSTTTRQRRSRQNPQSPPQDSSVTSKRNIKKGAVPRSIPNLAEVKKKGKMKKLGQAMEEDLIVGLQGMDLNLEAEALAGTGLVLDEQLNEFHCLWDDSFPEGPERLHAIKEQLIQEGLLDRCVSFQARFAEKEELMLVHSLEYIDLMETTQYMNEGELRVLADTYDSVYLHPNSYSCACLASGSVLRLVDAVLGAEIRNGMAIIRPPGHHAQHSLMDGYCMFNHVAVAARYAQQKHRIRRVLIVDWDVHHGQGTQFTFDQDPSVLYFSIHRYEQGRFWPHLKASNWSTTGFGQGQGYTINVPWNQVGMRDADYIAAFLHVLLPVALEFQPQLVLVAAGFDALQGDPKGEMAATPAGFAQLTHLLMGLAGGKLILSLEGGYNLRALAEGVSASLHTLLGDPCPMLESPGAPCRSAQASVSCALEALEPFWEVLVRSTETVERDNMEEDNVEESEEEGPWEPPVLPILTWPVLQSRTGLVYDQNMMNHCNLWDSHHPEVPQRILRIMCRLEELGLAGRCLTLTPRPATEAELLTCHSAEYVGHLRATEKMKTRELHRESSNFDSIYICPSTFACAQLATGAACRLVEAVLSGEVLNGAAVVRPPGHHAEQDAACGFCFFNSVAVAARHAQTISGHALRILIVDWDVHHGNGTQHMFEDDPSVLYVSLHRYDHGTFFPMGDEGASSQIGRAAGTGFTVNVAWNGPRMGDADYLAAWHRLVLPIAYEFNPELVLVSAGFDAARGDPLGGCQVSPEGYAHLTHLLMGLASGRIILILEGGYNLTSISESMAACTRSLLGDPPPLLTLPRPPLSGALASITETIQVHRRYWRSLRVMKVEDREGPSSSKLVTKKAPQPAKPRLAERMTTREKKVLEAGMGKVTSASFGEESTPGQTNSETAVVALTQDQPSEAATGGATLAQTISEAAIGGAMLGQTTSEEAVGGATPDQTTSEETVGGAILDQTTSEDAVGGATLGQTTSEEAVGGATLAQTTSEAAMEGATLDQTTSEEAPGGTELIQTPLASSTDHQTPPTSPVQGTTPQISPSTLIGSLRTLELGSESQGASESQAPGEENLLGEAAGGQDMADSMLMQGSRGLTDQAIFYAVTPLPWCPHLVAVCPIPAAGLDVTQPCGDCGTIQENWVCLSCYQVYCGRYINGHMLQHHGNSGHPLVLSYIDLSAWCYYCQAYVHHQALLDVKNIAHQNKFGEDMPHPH
Format: biochemical

SMILES	IC50 [µM]
CCC(=O)CCCCC[C@H](NC(=O)[C@H]1CC12CCN(C)CC2)c1ncc(-c2coc3ccccc3c2=O)[nH]1 [Compound 86]	3.33
CCC(=O)CCCCC[C@H](NC(=O)[C@H]1CC12CCN(CC)CC2)c1ncc(-c2ccc3c(ccc(=O)n3C)c2)o1 [Compound 97]	7.09
CN1CCC2(CC1)C[C@@H]2C(=O)N[C@@H](CCCCCC(=O)CC1CC1)c1ncc(-c2ccc(F)cc2)[nH]1 [Compound 84]	3.78
CCC(=O)CCCCC[C@H](NC(=O)[C@H]1CC12CCN(C)CC2)c1ncc(-c2ccc3cc(C#N)ccc3c2)[nH]1 [Compound 90]	1.01
CCC(=O)CCCCC[C@H](NC(=O)[C@H]1CC12CCN(CC)CC2)c1ncc(-c2ccc(-c3ncco3)cc2)o1 [Compound 94]	2.3

Same assay, conditions: HDAC6, Fluor-de-Lys assay

SMILES	IC50 [µM]
CCOc1ncc(-c2cnc([C@H](CCCCCC(=O)CC)NC(=O)[C@H]3CC34CCN(C)CC4)[nH]2)cn1 [Compound 266]	42.5
CCC(=O)CCCCC[C@H](NC(=O)[C@@H]1CC12CCN(C)CC2)c1nnc(-c2cc3ccccc3nc2OC)o1 [Compound 305]	0.636
CCC(=O)CCCCC[C@H](NC(=O)C1CC12CCN(CC)CC2)c1nc(-c2ccc(F)cc2)[nH]c1-c1cccs1 (stereo partly drawn) [Compound 252]	33.9
CCC(=O)CCCCC[C@H](N)c1ncc(-c2cc3ccc(=O)n(C)c3cc2OC)o1 [Compound 224]	> 0.9
CCC(=O)CCCCC[C@H](NC(=O)C1(N)CC2(CN(C)C2)C1)c1ncc(-c2cc3ccccc3nc2OC)[nH]1 [Compound 276]	1.28
CCC(=O)CCCCCC(NC(=O)C1CC12CCN(CC)CC2)c1nc(-c2ccc(F)cc2)[nH]c1-c1ccnn1C (stereo not drawn) [Compound 253]	> 45
CCC(=O)CCCCC[C@H](NC(=O)[C@H]1CC12CCN(C)CC2)c1ncc(-c2ccc(-n3nc(C)cc3C)cc2)[nH]1 [Compound 260]	28.4

Each compound was assayed against T3, Recombinant human HDAC2 (Homo sapiens, UniProt Q92769) (assay: Human HDAC enzyme inhibitor Fluor-de-Lys assay, HDAC2). Details: not given.
T3 construct: Full length human HDAC2-FLAG was expressed in baculovirus infected Sf9 cells; FLAG (C); made in house; host or cells: Sf9 (baculovirus)
T3 sequence (Q92769 whole entry): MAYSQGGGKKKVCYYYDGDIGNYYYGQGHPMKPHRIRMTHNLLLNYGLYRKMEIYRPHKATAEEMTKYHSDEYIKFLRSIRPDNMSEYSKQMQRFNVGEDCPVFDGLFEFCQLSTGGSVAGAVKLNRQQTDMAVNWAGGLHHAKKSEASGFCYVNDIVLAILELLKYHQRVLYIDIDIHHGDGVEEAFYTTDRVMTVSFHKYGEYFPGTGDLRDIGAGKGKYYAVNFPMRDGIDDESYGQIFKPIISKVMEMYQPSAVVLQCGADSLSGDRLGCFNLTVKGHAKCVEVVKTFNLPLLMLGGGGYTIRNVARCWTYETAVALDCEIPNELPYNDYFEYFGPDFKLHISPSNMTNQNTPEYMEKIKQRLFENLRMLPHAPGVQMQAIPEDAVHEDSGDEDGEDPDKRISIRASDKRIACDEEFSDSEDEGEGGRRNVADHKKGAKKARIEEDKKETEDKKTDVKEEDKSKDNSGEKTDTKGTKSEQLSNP
Format: biochemical
Procedure, shortened: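 Fluor-de-Lys format at room temperature (23° C.): compounds titrated 10-point, 1:3, preincubated with HDAC before substrate addition. Developer with excess HDAC inhibitor ends the reaction, and trypsin-liberated AMC fluorescence is the read-out.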

SMILES	IC50 [nM]
CCC(=O)CCCCC[C@H](NC(=O)[C@H]1CC12CCN(C)CC2)c1ncc(-c2coc3ccccc3c2=O)[nH]1 [Compound 86]	64.8
CCC(=O)CCCCC[C@H](NC(=O)[C@H]1CC12CCN(CC)CC2)c1ncc(-c2ccc3c(ccc(=O)n3C)c2)o1 [Compound 97]	23
CN1CCC2(CC1)C[C@@H]2C(=O)N[C@@H](CCCCCC(=O)CC1CC1)c1ncc(-c2ccc(F)cc2)[nH]1 [Compound 84]	63.8
CCC(=O)CCCCC[C@H](NC(=O)[C@H]1CC12CCN(C)CC2)c1ncc(-c2ccc3cc(C#N)ccc3c2)[nH]1 [Compound 90]	1.6
CCC(=O)CCCCC[C@H](NC(=O)[C@H]1CC12CCN(CC)CC2)c1ncc(-c2ccc(-c3ncco3)cc2)o1 [Compound 94]	34

Same assay, conditions: recombinant human HDAC2, Fluor-de-Lys assay

SMILES	IC50 [nM]
CCOc1ncc(-c2cnc([C@H](CCCCCC(=O)CC)NC(=O)[C@H]3CC34CCN(C)CC4)[nH]2)cn1 [Compound 266]	372
CCC(=O)CCCCC[C@H](NC(=O)[C@@H]1CC12CCN(C)CC2)c1nnc(-c2cc3ccccc3nc2OC)o1 [Compound 305]	160
CCC(=O)CCCCC[C@H](NC(=O)C1CC12CCN(CC)CC2)c1nc(-c2ccc(F)cc2)[nH]c1-c1cccs1 (stereo partly drawn) [Compound 252]	185
CCC(=O)CCCCC[C@H](N)c1ncc(-c2cc3ccc(=O)n(C)c3cc2OC)o1 [Compound 224]	444
CCC(=O)CCCCC[C@H](NC(=O)C1(N)CC2(CN(C)C2)C1)c1ncc(-c2cc3ccccc3nc2OC)[nH]1 [Compound 276]	9.1
CCC(=O)CCCCCC(NC(=O)C1CC12CCN(CC)CC2)c1nc(-c2ccc(F)cc2)[nH]c1-c1ccnn1C (stereo not drawn) [Compound 253]	111
CCC(=O)CCCCC[C@H](NC(=O)[C@H]1CC12CCN(C)CC2)c1ncc(-c2ccc(-n3nc(C)cc3C)cc2)[nH]1 [Compound 260]	52.5

The compounds below were run against T4, Recombinant human HDAC1 (Homo sapiens, UniProt Q13547) (assay: Human HDAC enzyme inhibitor Fluor-de-Lys assay, HDAC1). Details: not given.
T4 construct: FLAG (C); made in house
T4 sequence (Q13547 whole entry): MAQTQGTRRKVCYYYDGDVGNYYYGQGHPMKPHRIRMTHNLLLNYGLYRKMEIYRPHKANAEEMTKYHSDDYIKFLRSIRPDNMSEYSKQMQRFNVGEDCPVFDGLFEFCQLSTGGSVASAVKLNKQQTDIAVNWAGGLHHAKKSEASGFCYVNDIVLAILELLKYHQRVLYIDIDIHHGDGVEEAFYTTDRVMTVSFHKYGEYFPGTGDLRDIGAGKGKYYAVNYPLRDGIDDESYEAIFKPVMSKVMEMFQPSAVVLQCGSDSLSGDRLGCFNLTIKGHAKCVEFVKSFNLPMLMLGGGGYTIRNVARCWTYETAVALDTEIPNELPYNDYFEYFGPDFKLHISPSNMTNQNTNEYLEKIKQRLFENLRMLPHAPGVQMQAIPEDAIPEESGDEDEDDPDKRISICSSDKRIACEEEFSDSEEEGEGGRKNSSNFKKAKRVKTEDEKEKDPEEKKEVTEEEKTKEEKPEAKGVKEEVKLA
Format: biochemical
Procedure, shortened: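 Fluor-de-Lys format at room temperature (23° C.): compounds titrated 10-point, 1:3, preincubated with HDAC before substrate addition; HDAC1 run at 0.3 nM enzyme with 20 μM BML-KI104. Developer with excess HDAC inhibitor ends the reaction, and trypsin-liberated AMC fluorescence is the read-out.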

SMILES	IC50 [nM]
CCC(=O)CCCCC[C@H](NC(=O)[C@H]1CC12CCN(C)CC2)c1ncc(-c2coc3ccccc3c2=O)[nH]1 [Compound 86]	15.9
CCC(=O)CCCCC[C@H](NC(=O)[C@H]1CC12CCN(CC)CC2)c1ncc(-c2ccc3c(ccc(=O)n3C)c2)o1 [Compound 97]	6.52
CN1CCC2(CC1)C[C@@H]2C(=O)N[C@@H](CCCCCC(=O)CC1CC1)c1ncc(-c2ccc(F)cc2)[nH]1 [Compound 84]	9.95
CCC(=O)CCCCC[C@H](NC(=O)[C@H]1CC12CCN(C)CC2)c1ncc(-c2ccc3cc(C#N)ccc3c2)[nH]1 [Compound 90]	0.28
CCC(=O)CCCCC[C@H](NC(=O)[C@H]1CC12CCN(CC)CC2)c1ncc(-c2ccc(-c3ncco3)cc2)o1 [Compound 94]	9.13

Same assay, conditions: recombinant human HDAC1, Fluor-de-Lys assay

SMILES	IC50 [nM]
CCOc1ncc(-c2cnc([C@H](CCCCCC(=O)CC)NC(=O)[C@H]3CC34CCN(C)CC4)[nH]2)cn1 [Compound 266]	155
CCC(=O)CCCCC[C@H](NC(=O)[C@@H]1CC12CCN(C)CC2)c1nnc(-c2cc3ccccc3nc2OC)o1 [Compound 305]	47.3
CCC(=O)CCCCC[C@H](NC(=O)C1CC12CCN(CC)CC2)c1nc(-c2ccc(F)cc2)[nH]c1-c1cccs1 (stereo partly drawn) [Compound 252]	56.6
CCC(=O)CCCCC[C@H](N)c1ncc(-c2cc3ccc(=O)n(C)c3cc2OC)o1 [Compound 224]	38.7
CCC(=O)CCCCC[C@H](NC(=O)C1(N)CC2(CN(C)C2)C1)c1ncc(-c2cc3ccccc3nc2OC)[nH]1 [Compound 276]	1.56
CCC(=O)CCCCCC(NC(=O)C1CC12CCN(CC)CC2)c1nc(-c2ccc(F)cc2)[nH]c1-c1ccnn1C (stereo not drawn) [Compound 253]	30.4
CCC(=O)CCCCC[C@H](NC(=O)[C@H]1CC12CCN(C)CC2)c1ncc(-c2ccc(-n3nc(C)cc3C)cc2)[nH]1 [Compound 260]	13.1
